Measured values published in patent US20030120046A1, “Radioisotope-labeled complexes of glucose derivatives and kits for the preparation thereof” (priority 2000, published 2003).
Like-named read-outs stand apart in the source and are kept apart here.

Key:
[1] = Stability test of radiopharmaceuticals in a physiological saline (purity by TLC); format: physicochemical; details: room temperature, mean of 3 experiments
Method: (§1) The stability of radiopharmaceuticals was expressed as the purity of radiopharmaceutical at a given time, and measured after 0, 2, 4 and 6 hrs in a physiological saline and the human plasma, respectively. […] After well stirring the ingredients in each vial, the stability was measured at given times at room temperature.
(§2) The stability was measured as follows. 5 μl of each radiopharmaceutical was deposited in the lower part of TLC and was developed using methyl ethyl ketone (or acetone) and 0.9% physiological saline, respectively. Upon completion of development, each TLC was equally divided into 2 parts and the radioactivity of each part was measured using gamma counter. The stability was calculated by measurement of the purity from the obtained radioactivity. […] The purity of radiopharmaceuticals is calculated as follows.
(§3) 100%−[(radioactivity in the upper part of TLC developed with acetone÷radioactivity in the whole TLC developed with acetone)+(radioactivity in the lower part of TLC developed with 0.9% physiological saline÷radioactivity in the whole TLC developed with 0.9% physiological saline)]×100%

[2] = Stability test of radiopharmaceuticals in the human plasma (purity by TLC); format: in vitro ADME; details: room temperature, mean of 3 experiments
Method: as §1, §2, §3

tumor = details: background art, in words; cited from earlier work
VX-2 tumor cells = details: for Normal region counts / Tumor counts: 1.5 mCi i.v.
Method: Further, ^99mTc-labeled radiopharmaceuticals were tested for their stability in a physiological saline and the human plasma with the lapse of time (see Example 4). […] The radiopharmaceuticals of the present invention were tested for biodistribution and the uptake level in rabbits transplanted with VX-2 tumor cells and then, compared with ^99mTc-MIBI currently used for imaging tumor in nuclear medicine (see Example 5). More specifically, ^99mTc-labeled glucose derivatives were injected to rabbits transplanted with tumor cells to obtain image using gamma camera. Then, the organs were removed to measure biodistribution and the uptake level of radiopharmaceuticals by calculating % ID (injected dose)/g, indicative of the uptake level of the injected radiopharmaceuticals per weight of tissues.
VX-2 tumor cells were ground in 2 ml of a physiological saline and then, transplanted via intramuscular injection to the right thigh muscle of three rabbits (New Zealand White species) weighing 2.5 to 3 kg using a syringe. Then, the rabbits were bred for 3 weeks to grow tumor to have a diameter of 2 to 3 cm. […] After injection, the rabbits were laid down under gamma camera and the gamma camera was controlled to cover the whole body and images were obtained for 15 minutes at 1 and 3 hours after injection, respectively.
The image of ^99mTc-MIBI was obtained at 10 minutes after injection. […] It is conventional that the standardized imaging time cannot be applied for radiopharmaceuticals since their physical, chemical and physiological properties all are different. Thus, the optimal imaging time may be set depending upon the employed radiopharmaceutical.
After obtaining image of the regions of interest, the uptake level of radioactivity was calculated from counts (unit of radioactivity) obtained by a particular program equipped with a gamma camera.

[3] = anterior image, 10 minutes after injection (footnote)
[4] = posterior image, 10 minutes after injection (footnote)

Row | Compound | Purity of radiopharmaceuticals at given times ([1]; 0 h) | Purity of radiopharmaceuticals at given times ([1]; 2 h) | Purity of radiopharmaceuticals at given times ([1]; 4 h) | Purity of radiopharmaceuticals at given times ([1]; 6 h) | Purity of radiopharmaceuticals at given times ([2]; 0 h) | Purity of radiopharmaceuticals at given times ([2]; 2 h) | Purity of radiopharmaceuticals at given times ([2]; 4 h) | Purity of radiopharmaceuticals at given times ([2]; 6 h) | uptake rate in the abdomen (tumor) | uptake rate in tumor (tumor) | wash-out rate in vivo (tumor) | Tumor/Normal ratio (VX-2 tumor cells; [3]) | Normal region counts (VX-2 tumor cells; [3]) | Tumor counts (VX-2 tumor cells; [3]) | Tumor uptake/normal region uptake ratio (VX-2 tumor cells; anterior image, 10 minutes after injection (footnote), Mean ± S.D. from 3 experiments) | wash-out in vivo (VX-2 tumor cells; image cannot be practically obtained at 30 minutes or more after injection, in words) | Tumor/Normal ratio (VX-2 tumor cells; [4]) | Normal region counts (VX-2 tumor cells; [4]) | Tumor counts (VX-2 tumor cells; [4])
1 | ^99mTc-glucosamine | 99.5% | 98.9% | 98.0% | 97.6% | 99.5% | 95.4% | 95.0% | 92.4% |  |  |  |  |  |  |  |  |  |  | 
2 | [99Tc].[C-]#[N+]CC(C)(C)OC.[C-]#[N+]CC(C)(C)OC.[C-]#[N+]CC(C)(C)OC.[C-]#[N+]CC(C)(C)OC.[C-]#[N+]CC(C)(C)OC.[C-]#[N+]CC(C)(C)OC [^99mTc-MIBI, ^99mTc-MIBI (methoxy isobutyl isonitrile)] |  |  |  |  |  |  |  |  | high | unsatisfactory | high | 1.7 | 5829 counts | 9931 counts | 2.22 ± 0.87 | rapidly washed out | 2.0 | 6566 counts | 13047 counts
